Measured values published in the NIST ThermoML archive (doi:10.1021/je700152c).

Assay: molar heat capacity at saturation pressure; xn = mol fraction of the nth substance listed

CCCCn1cc[n+](C)c1.Cc1ccc(S(=O)(=O)[O-])cc1 [1-butyl-3-methylimidazolium tosylate] + O
molar heat capacity [J/K/mol]
Conditions	Crystal	Metastable crystal
78.15 K, x1 = 0.83	130.09	–
78.19 K, x1 = 0.83	–	130.61
80.13 K, x1 = 0.83	132.44	–
80.17 K, x1 = 0.83	–	132.96
81.97 K, x1 = 0.83	134.26	–
82.01 K, x1 = 0.83	–	135.05
83.83 K, x1 = 0.83	136.35	–
83.86 K, x1 = 0.83	–	137.39
85.69 K, x1 = 0.83	138.43	–
85.72 K, x1 = 0.83	–	139.48
87.56 K, x1 = 0.83	140.78	–
87.59 K, x1 = 0.83	–	141.82
89.44 K, x1 = 0.83	142.87	–
89.46 K, x1 = 0.83	–	144.17
91.33 K, x1 = 0.83	144.95	–
91.34 K, x1 = 0.83	–	146.26
93.22 K, x1 = 0.83	147.04	–
93.23 K, x1 = 0.83	–	148.6
95.13 K, x1 = 0.83	149.12	150.69
97.03 K, x1 = 0.83	–	153.03
97.04 K, x1 = 0.83	150.95	–
98.94 K, x1 = 0.83	–	155.38
98.95 K, x1 = 0.83	153.03	–
100.85 K, x1 = 0.83	–	157.47
100.88 K, x1 = 0.83	155.12	–
102.77 K, x1 = 0.83	–	159.81
102.8 K, x1 = 0.83	156.94	–
104.69 K, x1 = 0.83	–	161.9
104.74 K, x1 = 0.83	159.03	–
106.61 K, x1 = 0.83	–	164.24
106.68 K, x1 = 0.83	161.12	–
108.55 K, x1 = 0.83	–	166.33
108.63 K, x1 = 0.83	163.2	–
110.48 K, x1 = 0.83	–	168.68
110.57 K, x1 = 0.83	165.03	–
112.41 K, x1 = 0.83	–	170.76
112.53 K, x1 = 0.83	167.11	–
114.35 K, x1 = 0.83	–	173.11
114.48 K, x1 = 0.83	169.2	–
116.29 K, x1 = 0.83	–	175.19
116.44 K, x1 = 0.83	171.02	–
118.23 K, x1 = 0.83	–	177.54
118.4 K, x1 = 0.83	173.11	–
120.18 K, x1 = 0.83	–	179.89
120.37 K, x1 = 0.83	175.19	–
122.12 K, x1 = 0.83	–	182.23
122.34 K, x1 = 0.83	177.02	–
124.07 K, x1 = 0.83	–	184.32
124.3 K, x1 = 0.83	179.1	–
126.01 K, x1 = 0.83	–	186.66
126.27 K, x1 = 0.83	181.19	–
127.96 K, x1 = 0.83	–	189.01
128.25 K, x1 = 0.83	183.28	–
129.91 K, x1 = 0.83	–	191.36
130.22 K, x1 = 0.83	185.36	–
131.86 K, x1 = 0.83	–	193.7
132.19 K, x1 = 0.83	187.45	–
133.81 K, x1 = 0.83	–	196.05
134.16 K, x1 = 0.83	189.79	–
134.57 K, x1 = 0.3	80.15	–
135.75 K, x1 = 0.83	–	198.4
136.14 K, x1 = 0.83	192.14	–
137.46 K, x1 = 0.3	81.31	–
137.7 K, x1 = 0.83	–	201
138.11 K, x1 = 0.83	194.75	–
139.65 K, x1 = 0.83	–	203.09
140.08 K, x1 = 0.83	197.88	–
140.19 K, x1 = 0.3	82.47	–
141.59 K, x1 = 0.83	–	205.7
142.04 K, x1 = 0.83	201.53	–
142.92 K, x1 = 0.3	83.64	–
143.53 K, x1 = 0.83	–	208.04
143.99 K, x1 = 0.83	206.74	–
145.47 K, x1 = 0.83	–	210.65
145.65 K, x1 = 0.3	84.8	–
145.93 K, x1 = 0.83	214.56	–
147.41 K, x1 = 0.83	–	213
147.86 K, x1 = 0.83	217.43	–
148.38 K, x1 = 0.3	85.96	–
149.35 K, x1 = 0.83	–	215.34
149.8 K, x1 = 0.83	211.69	–
151.11 K, x1 = 0.3	87.13	–
151.28 K, x1 = 0.83	–	217.95
151.76 K, x1 = 0.83	207.26	–
153.22 K, x1 = 0.83	–	220.3
153.74 K, x1 = 0.83	206.22	–
153.84 K, x1 = 0.3	88.29	–
155.15 K, x1 = 0.83	–	222.64
155.72 K, x1 = 0.83	206.74	–
156.57 K, x1 = 0.3	89.45	–
157.08 K, x1 = 0.83	–	224.99
157.71 K, x1 = 0.83	207.78	–
159.01 K, x1 = 0.83	–	227.6
159.29 K, x1 = 0.3	90.61	–
159.7 K, x1 = 0.83	209.09	–
160.94 K, x1 = 0.83	–	229.94
161.69 K, x1 = 0.83	210.65	–
161.79 K, x1 = 0.37	108.28	–
162.02 K, x1 = 0.3	91.78	–
162.86 K, x1 = 0.83	–	232.29
163.68 K, x1 = 0.83	212.47	–
164.74 K, x1 = 0.3	92.94	–
164.78 K, x1 = 0.83	–	234.63
164.91 K, x1 = 0.37	109.92	–
165.67 K, x1 = 0.83	214.3	–
166.7 K, x1 = 0.83	–	236.72
167.46 K, x1 = 0.3	94.21	–
167.65 K, x1 = 0.83	215.86	–
167.87 K, x1 = 0.37	111.44	–
168.62 K, x1 = 0.83	–	239.07
169.64 K, x1 = 0.83	217.69	–
170.18 K, x1 = 0.3	95.37	–
170.53 K, x1 = 0.83	–	240.89
170.82 K, x1 = 0.37	112.95	–
171.63 K, x1 = 0.83	219.51	–
172.45 K, x1 = 0.83	–	243.24
172.9 K, x1 = 0.3	96.64	–
173.61 K, x1 = 0.83	221.34	–
173.77 K, x1 = 0.37	114.59	–
174.36 K, x1 = 0.83	–	245.32
175.6 K, x1 = 0.83	223.42	–
175.61 K, x1 = 0.3	97.91	–
176.27 K, x1 = 0.83	–	247.15
176.72 K, x1 = 0.37	116.23	–
177.58 K, x1 = 0.83	224.99	–
178.18 K, x1 = 0.83	–	248.97
178.32 K, x1 = 0.3	99.28	–
179.56 K, x1 = 0.83	227.07	–
179.67 K, x1 = 0.37	118.38	–
180.09 K, x1 = 0.83	–	250.8
181.02 K, x1 = 0.3	101.4	–
181.54 K, x1 = 0.83	228.9	–
181.99 K, x1 = 0.83	–	252.62
182.6 K, x1 = 0.37	121.41	–
183.52 K, x1 = 0.83	230.72	–
183.7 K, x1 = 0.3	104.68	–
183.9 K, x1 = 0.83	–	254.19
185.5 K, x1 = 0.37	126.71	–
185.5 K, x1 = 0.83	232.81	–
185.8 K, x1 = 0.83	–	256.01
186.36 K, x1 = 0.3	107.53	–
187.47 K, x1 = 0.83	234.9	–
